Where “and” joins values, the source holds several entries; their conditions need not be identical. Identical values can stand only once. A value given as a limit tells only on which side of the number the result lay.

One may read the IC50 as the concentration at which inhibition is half-maximal.

For the test, the target named is SARS-CoV-2 Main Protease (SARS-CoV-2) (UniProt P0DTD1).
On to `CN(Cc1ccccc1Br)c1cc(Cl)cc(CC(=O)Nc2cncc3ccccc23)c1`, for which the IC50 stood at 2.11 µM.

Consider `O=C(Nc1cncc2ccccc12)C1CCN(Cc2ccccc2)c2ccc(Cl)cc21` (stereo unspecified), for which the IC50 worked out at 1.06 µM.

The molecule `Cc1ccncc1NC(=O)Cc1cncc(Cl)c1` came in with an IC50 of 46.4 µM.

As for `CC1(C(=O)Nc2cncc3ccccc23)CN(S(=O)(=O)CC2(C#N)CC2)Cc2ccc(Cl)cc21` (stereo unspecified), the IC50 amounted to 0.096 µM.

Take `O=C(Cc1cccc(Cl)c1)Nc1cncc2c1NCCC2`: the IC50 turned out to be 38 µM.

In the case of `O=C(NCCc1cccc(F)c1)C(c1cccnc1)N(Cc1cccnc1)C(=O)c1cnc[nH]1` (stereo unspecified), the IC50 is more than 99 µM.

The molecule `Nc1nn(C(=O)Cc2cccc(Cl)c2)c2cc(F)ccc12` registered an IC50 of more than 99.5 µM.

Turning to `C=CC(=O)N(Cc1ccccc1Cl)C(C(=O)NC(C)(C)C)c1cncc2ccccc12` (stereo unspecified), the IC50 was more than 99.5 µM.

Consider `CNC(=O)c1cc(Cl)cc(CC(=O)Nc2cnccc2C)c1`, for which the IC50 was 46.3 µM and 57.3 µM.

In the case of `C=CC(=O)N(c1ccc(C(C)(C)C)cc1)C(C(=O)NCC1CCCO1)c1cccnc1` (stereo unspecified), the IC50 came out at 90.5 µM.

As for `CC(C)(C)c1ccc(N(C(=O)c2nc(CN3CCOCC3)cs2)C(C(=O)NCCc2cccc(F)c2)c2cccnc2)cc1` (stereo unspecified), the IC50 is more than 99.5 µM.

For the molecule `COc1cc2c(cc1Nc1cc(Cl)cc(CC(=O)Nc3cncc4ccccc34)c1)oc1ccccc12`, the IC50 turned out to be 1.87 µM.

Consider `O=C1CC(Oc2cc(Cl)cc(CC(=O)Nn3cnc4ccccc4c3=O)c2)N1` (stereo unspecified), for which the IC50 is more than 99.5 µM.

`C[C@H](C/C=C/C(C)(C)O)[C@H]1CC[C@@]2(C)[C@@H]3C=C[C@@]45OC[C@]3(CC[C@]12C)[C@@H]4CC[C@H](O)C5(C)C` (stereo in doubt) registered an IC50 of more than 99.5 µM.

Consider `CC1(CS(=O)(=O)N2Cc3ccc(Cl)cc3C(C(=O)Nc3cncc4ccc(C(C)(C)O)cc34)C2)CS(=O)(=O)C1` (stereo unspecified), for which the IC50 amounted to 2.36 µM.

Consider `O=C(CN1Cc2ccc(Cl)cc2C(C(=O)Nc2cncc3ccccc23)C1)NC1CC1` (stereo unspecified), for which the IC50 was 0.076 µM and 0.099 µM and 0.186 µM.

`CNC(=O)CN1CC2(CCN(c3cncc4cc(Cl)ccc34)C2=O)c2cc(Cl)ccc2C1=O` (stereo unspecified) gave an IC50 of 0.449 µM.

For `Cc1ccncc1NC(=O)Cc1cc(Cl)cc(OCc2nnc(C3CCCCC3)o2)c1`, the IC50 amounted to 20.6 µM.

`O=C(Cc1cccc(Cl)c1)Nc1cncn2cnnc12`: the IC50 was more than 99.5 µM.

Consider `CN(C)CCOc1ccc2cncc(NC(=O)C3CN(S(=O)(=O)CC4(C)CS(=O)(=O)C4)Cc4ccc(Cl)cc43)c2c1` (stereo unspecified), for which the IC50 came out at 0.125 µM.

In turn, `O=C(Cc1cc(Cl)cc(Nc2cccc(F)c2[N+](=O)[O-])c1)Nc1cncc2ccccc12` gave an IC50 of 1.99 µM.

With `COC(=O)C1CC(NC(=O)C(c2cccnc2)N(C(=O)c2cocn2)c2ccc(C(C)(C)C)cc2)C1` (stereo unspecified), the IC50 is 3.99 µM.

Consider `O=C1C(=O)N(Cc2ccccc2)c2ccc([N+](=O)[O-])cc21`, for which the IC50 is more than 99.5 µM.

Turning to `COc1cccc(CCNc2cc(Cl)cc(CC(=O)Nc3cncc4ccccc34)c2)c1`, the half-inhibitory concentration (IC50) came out at 3.16 µM.

As to `COC(=O)c1c(C)n(S(C)(=O)=O)c2ccc(N(C(=O)c3ccco3)S(C)(=O)=O)cc12`, the IC50 was 0.935 µM.

Take `Cc1cccc(C2CCCCN2C(=O)C(C)c2cncnc2)c1C` (stereo unspecified): the IC50 is more than 99.5 µM.

With `O=C(CCl)N1CCN(S(=O)(=O)c2ccsc2)[C@H](C(=O)N2CCN(c3ccccc3)CC2)C1` (stereo in doubt), the IC50 stood at 1.98 µM.

Regarding `O=C(CCl)Nc1cccc(N2CCCC2=O)c1`, the IC50 is 72 µM and 68.7 µM.

Consider `CNC(=O)CN1CC(C(=O)Nc2cncc3c2CCCC3)c2cc(Cl)ccc2C1=O` (stereo unspecified), for which the IC50 was 0.448 µM.

`CS(=O)(=O)Nc1ccc2c(NC(=O)Cc3cccc(Cl)c3)cncc2c1` gave an IC50 of 0.882 µM.

Regarding `O=C(Cc1cc(Cl)cc(N2CCN(c3cccc([N+](=O)[O-])c3)CC2)c1)Nc1cncc2ccccc12`, the IC50 was determined as 2.87 µM.

Molecule `CC(Cn1ccnc1C#N)c1cccc(Cl)c1` (stereo unspecified) came in with an IC50 of more than 99.5 µM.

In turn, `O=C(Nc1ccc(N(Cc2ccsc2)C(=O)Cn2nnc3ccccc32)cc1)C1CC1` displayed an IC50 of 3.99 µM.

On to `CN(C)c1ccc(N(Cc2ccsc2)C(=O)Cn2nnc3ccccc32)cc1`, for which the IC50 was determined as 1.79 µM.

`N#Cc1nccn1CCCc1cccc(Cl)c1` displayed an IC50 of more than 99.5 µM.

As to `O=C(c1cc(=O)[nH]c2ccccc12)N1CCN(Cc2cccc(Cl)c2)CC1`, the IC50 is 4.57 µM.

The molecule `CC(C)(C)c1ccc(N(C(=O)c2cc(C3(O)COC3)on2)C(C(=O)NCCc2cccc(F)c2)c2cccnc2)cc1` (stereo unspecified) yielded an IC50 of 26.2 µM.

Turning to `COc1cccc(CN2CCN(C(=O)c3cc(=O)[nH]c4ccccc34)CC2)c1`, the IC50 stood at 27.3 µM.

The molecule `O=C(Cc1cccc(C(F)(F)F)c1)Nc1cnccc1C(=O)O` yielded an IC50 of more than 99.5 µM.

As for `COc1ccccc1OCCNC(=O)c1cc(=O)[nH]c2cccc(C)c12`, the IC50 amounted to 10.6 µM.

In turn, `Cc1cc(Br)c(Cl)cc1Nc1cc(Cl)cc(CC(=O)Nc2cncc3ccccc23)c1` displayed an IC50 of 2.02 µM.

Regarding `CC(C)CCN1C(=O)C(=O)c2cc(Br)ccc21`, the IC50 is more than 99.5 µM.

`COC(C)(C)/C=C/C[C@@H](C)[C@H]1CC[C@@]2(C)[C@@H]3[C@@H](O[C@@H]4O[C@H](CO)[C@@H](O)[C@H](O)[C@H]4O)C=C4[C@@H](CC[C@H](O)C4(C)C)[C@]3(C=O)CC[C@]12C` (stereo in doubt) gave an IC50 of more than 99.5 µM.

On to `COc1cc(CNc2cc(Cl)cc(CC(=O)Nc3cncc4ccccc34)c2)ccc1O`, for which the IC50 was determined as 1.88 µM.

`CC(=O)N(CC(=O)Nc1ccc(F)c(Cl)c1)c1cccc(C(F)(F)F)c1`: the IC50 is more than 99.5 µM.

The molecule `O=C(Cc1cc(Cl)cc(N2CCC(O)(c3ccc(Cl)cc3)CC2)c1)Nc1cncc2ccccc12` returned an IC50 of 5.21 µM.

Consider `CC(C)c1cccc(C(C)C)c1Nc1cc(Cl)cc(CC(=O)Nc2cncc3ccccc23)c1`, for which the IC50 amounted to 1.82 µM.

Consider `O=C(Cc1cc(Cl)cc(-c2nnn[nH]2)c1)Nc1cncc2ccccc12`, for which the IC50 was 21.4 µM.

`O=C(NNc1nc2cccnc2s1)c1ccc2ccncc2c1` registered an IC50 of more than 99.5 µM.

Turning to `N#CC1(CS(=O)(=O)N2Cc3ccc(Cl)cc3C(C(=O)Nc3cncc4cc(F)ccc34)C2)CC1` (stereo unspecified), the IC50 worked out at 0.222 µM.

In turn, `O=C(CC1(C(=O)Nc2cncc3ccccc23)CCOc2ccc(Cl)cc21)N1CCN(CC(F)(F)CO)CC1` (stereo unspecified) registered an IC50 of 7.28 µM.

The molecule `C[C@H]1CN(c2cc(Cl)cc(CC(=O)Nc3cncc4ccccc34)c2)CCN1C(=O)OC(C)(C)C` (stereo in doubt) registered an IC50 of 2.61 µM.

In the case of `COC(=O)[C@H]1CC[C@@H](CNC(C(=O)Nc2cncc3ccccc23)c2cccc(Cl)c2)O1` (stereo in doubt), the IC50 was determined as 1.72 µM.

With `COc1cc(Nc2cc(Cl)cc(CC(=O)Nc3cncc4ccccc34)c2)c(Cl)cc1Cl`, the IC50 is 6.8 µM.

Consider `CS(=O)(=O)c1ccc2c(NC(=O)C3CN(CC(=O)NC4CCC4)C(=O)c4ccc(Cl)cc43)cncc2c1` (stereo unspecified), for which the IC50 is 0.252 µM.

For the molecule `C#CCCCC(=O)N[C@@H](CC)C(=O)N[C@H](C(=O)N[C@@H](CC(C)C)C(=O)N[C@@H](CCC(=O)N(C)C)C(=O)COC(=O)c1c(C)cccc1C)C(C)(C)C` (stereo in doubt), the IC50 was 5.77 µM and 5.83 µM.

On to `Cc1cc(Br)c(Nc2cc(Cl)cc(CC(=O)Nc3cncc4ccccc34)c2)c([N+](=O)[O-])c1`, for which the IC50 was 1.94 µM.

`O=C(c1cc(=O)cc[nH]1)N1CCN(c2cccc(Cl)c2)CC1`: the IC50 is more than 99.5 µM.

Take `CNC(=O)CN1Cc2ccc(Cl)cc2C2(CCN(c3cncc4ccc(F)cc34)C2=O)C1` (stereo unspecified): the IC50 amounted to 0.267 µM.

In turn, `O=C(Nc1cc[nH]c(=O)c1)C1CCOc2ccc(Cl)cc21` (stereo unspecified) returned an IC50 of more than 99.5 µM.

`O=C(C[C@@]1(C(=O)Nc2cncc3ccccc23)CCOc2ccc(Cl)cc21)N1CCN(C2CCOC2)CC1` (stereo in doubt) showed an IC50 of 46.5 µM.

For the molecule `CCCNC(=O)CN1CC(C(=O)Nc2cncc3cc(S(C)(=O)=O)ccc23)c2cc(Cl)ccc2C1=O` (stereo unspecified), the IC50 is 0.127 µM and 0.209 µM.

As to `C=CC(=O)N(c1ccc(C(C)(C)C)cc1)C(C(=O)NCC)c1cccnc1` (stereo unspecified), the IC50 worked out at 45.5 µM.

In turn, `O=C(NCCc1cccc(F)c1)C(c1cccnc1)N(C(=O)c1cocn1)c1ccc2c(c1)CCC(=O)N2CC(F)F` (stereo unspecified) registered an IC50 of 24.5 µM.

For `O=C(Cc1cccc(Cl)c1)Nc1[nH]nc2cc(F)ccc12`, the IC50 was more than 99.5 µM.

For `CN1CCCC(N(C(=O)c2cocn2)C(C(=O)NCCc2cccc(F)c2)c2cccnc2)C1` (stereo unspecified), the IC50 is more than 99.5 µM.

In turn, `COc1cc(C)ccc1N(C(=O)c1ccco1)C(C(=O)NCCc1cccc(F)c1)c1cccnc1` (stereo unspecified) gave an IC50 of more than 99.5 µM.

`O=C(Cc1ccncc1Cl)Nc1cncc2ccccc12` registered an IC50 of 52.6 µM.

`O=C(Cc1cc(Cl)cc(Nc2n[nH]c3ccc(Br)cc23)c1)Nc1cncc2ccccc12` had an IC50 of 1.83 µM.

`O=C(Nc1cncc2ccccc12)C1COc2ccc(Cl)cc21` (stereo unspecified) displayed an IC50 of 0.764 µM.

Molecule `O=C(Cc1cc(Cl)cc(OC(F)(F)F)c1)Nc1cncc2ccccc12` came in with an IC50 of 1.55 µM.

Consider `O=C(Nc1cccc2c[nH]nc12)C1CCOc2ccc(Cl)cc21` (stereo unspecified), for which the half-inhibitory concentration (IC50) is more than 99.5 µM.

`O=C(Nc1cncc2ccccc12)[C@@H]1COc2ccc(Cl)cc2C1` (stereo in doubt): the concentration for half-maximal inhibition (IC50) is more than 99.5 µM.

`Cc1nc2ccc(NC(=O)NCc3ccc4[nH]c(=O)[nH]c4c3)cc2o1` had an IC50 of more than 99.5 µM.

Regarding `O=C(Cc1cc(Cl)cc(Nc2ccc(I)cc2)c1)Nc1cncc2ccccc12`, the IC50 came out at 1.84 µM.

In the case of `O=C(Cc1cc(Cl)ccc1Cl)Nc1cncc2ccccc12`, the half-maximal inhibitory concentration (IC50) came out at 1.02 µM.

In the case of `O=C1CCN(S(=O)(=O)c2cccs2)CC1`, the IC50 is more than 99.5 µM.

With `Cc1c(C(=O)CCl)c2ccccn2c1C(=O)c1ccc(F)cc1`, the IC50 is 0.719 µM.

`Cc1ccncc1NC(=O)Cc1cccc(Br)c1` gave an IC50 of 20.6 µM.

Molecule `NC(=O)C1Cc2nc[nH]c2CN1C(=O)CC1(C(=O)Nc2cncc3ccccc23)CCOc2ccc(Cl)cc21` (stereo unspecified) showed an IC50 of 9.28 µM.

On to `O=C(NCC(c1ccccc1)c1c[nH]c2ccccc12)c1cnccn1` (stereo unspecified), for which the IC50 is more than 99.5 µM.

Regarding `CN(C)CCCN(Cc1cccs1)C(=O)Cc1cncc2ccccc12`, the IC50 was more than 99.5 µM.

On to `O=C(Cc1cc(Cl)cc(Nc2ccc(Br)cc2O)c1)Nc1cncc2ccccc12`, for which the IC50 amounted to 3.89 µM.

`Cc1c(Cl)cccc1S(=O)(=O)N(Cc1ccc(F)cc1)c1ccc2[nH]c(=O)[nH]c2c1` displayed an IC50 of more than 99.5 µM.

Take `CC(C)(C)NC(=O)CN1CC(C(=O)Nc2cncc3cc(F)ccc23)c2cc(Cl)ccc2C1=O` (stereo unspecified): the IC50 was 1.01 µM.

Take `Cc1ccc(-n2ncc3c(=O)n(CC(N)=O)cnc32)cc1C`: the IC50 was more than 99.5 µM.
